Data set [1] concerns D-amino acid oxidase (DAAO). Particulars: cited from earlier work.
The subject of data set [2] is patients with dementia. Particulars: depression in patients with dementia; cited from earlier work.
Data set [3] concerns patients with MDD. In words: 17-Item Hamilton rating scale for depression (HAMD-17) in randomized, double-blind, placebo-controlled trial. Type of data set: in vivo, human. Conditions: for HAMD-17 Difference, Mean ± SD: baseline to week 8, 250-1500 mg/day, n = 20, p=0.011 vs placebo; for HAMD-17 score before treatment: baseline. Here is the method:
(§1) It was conducted a randomized, double-blind, placebo-controlled trial in Taiwan. […] At the baseline and at the end of week 2, 4, 6 and 8, the assessments of 17-Item Hamilton rating scale for depression (HAMD-17) (Hamilton 1960), perceived stress scale (PSS), and global assessment of function (GAF) were arranged.
(§2) This study was a pilot eight weeks trial with the aim of examining sodium benzoate for the treatment of MDD. Patients were evaluated by research psychiatrists after a thorough medical and neurological workup. The structured clinical interview for DSM-IV (SCID) (American Psychiatric Association 1994) was conducted for diagnosis, and eligible patients diagnosed with MDD by DSM-IV (American Psychiatric Association 1994b) were recruited. […] The dosage of study drugs was adjusted according to clinical evaluation.
(§3) The data analyses were based on the intent-to-treat principle. The last observation carried forward was used to analyze all available data from the entire sample (i.e., cases with complete and incomplete data). A level of 0.05 (two-sided value) for type I errors was adopted for all analyses for statistical significance. Demographic characteristics, baseline and endpoint symptomatology were compared between two groups by t test (or Mann-Whitney U test) for continuous variables and chi-square test (or Fisher's exact test) for categorical variables.

Data set [4] deals with patients with MDD. In words: Global assessment of function (GAF) in randomized, double-blind, placebo-controlled trial. Format: in vivo, human. Particulars: for GAF Difference, Mean ± SD: baseline to week 8, 250-1500 mg/day, n = 20, table p 0.103 vs placebo. The procedure:
as §1
Patients were evaluated by research psychiatrists after a thorough medical and neurological workup. The structured clinical interview for DSM-IV (SCID) (American Psychiatric Association 1994) was conducted for diagnosis, and eligible patients diagnosed with MDD by DSM-IV (American Psychiatric Association 1994b) were recruited. […] The dosage of study drugs was adjusted according to clinical evaluation.
as §3

Data set [5] concerns patients with MDD. In words: Perceived stress scale (PSS) in randomized, double-blind, placebo-controlled trial. Conditions: for PSS Difference, Mean ± SD: baseline to week 8, 250-1500 mg/day, n = 20, p=0.022 vs placebo. Type of data set: in vivo, human. The procedure: as §1, §2, §3
For data set [6], the system named is patients with MDD. In words: Mini-mental state examination (MMSE) score of single subjects of the treatment group. Format: in vivo, human. Particulars: for MMSE score before treatment: baseline. The source says: At the same time, the mini-mental state examination (MMSE) score, which is used to evaluate cognitive impairment, has improved from 26 to 30. […] Furthermore, person two has a decrease of HAMD-17 score from 26 to 12, and improved cognitive function as shown by an increased MMSE score from 23 to 26.

In data set [7] the test system is patients with MDD. Nature of the data set: Safety assessment: UKU side-effects rating scale, routine laboratory tests, EKG, dropout. Type of data set: in vivo, human. The procedure: In addition, the assessments of systemic side effects were examined biweekly by routine physical and neurological examinations and the Udvalg for Kliniske Undersogelser (UKU) side-effects rating scale (Lingjaerde, Ahlfors et al. 1987). The routine laboratory tests, including complete blood count (CBC), biochemistry, urine analysis and electrocardiogram (EKG), were checked at the baseline and at the end of week 8.
Further, clinical assessment of safety was performed every week during the study period by face-to-face or telephone interview. Drop out was determined by research psychiatrists or patients if continuation of the study was regarded obviously more risky than beneficial.

Where [8] appears, read: single subject one, after 8 weeks.
Setting [9] is: single subject three, after treatment.
The mark [10] stands for this setting: single subject two, after treatment.
[11] abbreviates: week 0, n = 20, before treatment.

Structures are written as SMILES.

Consider `O=C(O)c1ccccc1` [Benzoic acid], for which the “inhibition of DAAO activity” value in data set [1] is “can inhibit DAAO activity”.

`CN1CCN2c3ncccc3Cc3ccccc3C2C1` (stereo not drawn) [mirtazapine]: the “reduction of depression scores compared with placebo” value in data set [2] is given as “did not differ from the placebo group”.

For `CN[C@H]1CC[C@@H](c2ccc(Cl)c(Cl)c2)c2ccccc21` [sertraline], in data set [2], the “reduction of depression scores compared with placebo” value is on record as “did not differ from the placebo group”.

For the molecule `O=C([O-])c1ccccc1.[Na+]` [sodium benzoate], the “improvement in HAMD-17 scores compared with placebo therapy” value in data set [3] (8 weeks) is given as “greater improvement”. Also, the “HAMD-17 Endpoint, Mean ± SD” value in data set [3] (after 8 weeks, 250-1500 mg/day, n = 20, LOCF) is listed as 19.3 ± 6.4. In addition, the “HAMD-17 Difference, Mean ± SD” value in data set [3] was 7.5±4.9; in data set [3] (listed as Benzoate), −7.5 ± 4.9. The HAMD-17 score decrease in data set [3] (single subject one, 8 weeks) worked out at 20; in data set [3] (single subject three), 16. The “HAMD-17 score after treatment” value in data set [3] (setting [8]) is recorded as 4; in data set [3] (setting [9]), 15; in data set [3] (setting [10]), 12. Further, the “HAMD-17 score before treatment” value came out at 24 in data set [3] (single subject one), 31 in data set [3] (single subject three) and 26 in data set [3] (single subject two). Further, the “HAMD-17 Baseline, Mean ± SD” value in data set [3] (setting [11]) is 26.7 ± 5.2. The “improvement in GAF scores compared with placebo therapy” value in data set [4] (8 weeks) is recorded as “slightly greater improvement”. The figures for the “GAF Difference, Mean ± SD” value in data set [4] and in data set [4] (listed as Benzoate) were 5.5±6.0 and 5.5 ± 6.0, respectively. In addition, the “GAF Baseline, Mean ± SD” value in data set [4] (setting [11]) is 57.4 ± 8.4. Further, the “improvement in PSS scores compared with placebo therapy” value in data set [5] (8 weeks) was “greater improvement”. In data set [5] (after 8 weeks, 250-1500 mg/day, n = 20, LOCF, p 0.019 vs placebo), the “PSS Endpoint, Mean ± SD” value is on record as 28.9 ± 10.8. For the same molecule, the “PSS Difference, Mean ± SD” value is given as 6.4±9.9 in data set [5] and −6.4 ± 9.9 in data set [5] (listed as Benzoate). Further, the “PSS Baseline, Mean ± SD” value in data set [5] (setting [11]) worked out at 35.2 ± 5.8. Moreover, the results for the “MMSE score after treatment” value in data set [6] (setting [8]), in data set [6] (setting [9]) and in data set [6] (setting [10]) were 30, 25 and 26, respectively. The results for the “MMSE score before treatment” value in data set [6] (single subject one), in data set [6] (single subject three) and in data set [6] (single subject two) were 26, 23 and 23, respectively. Besides, the “Treatment-emergent adverse events by UKU side-effects rating scale” value in data set [7] (8-week treatment) was “mild and not warranting medical treatment”. Moreover, the “dropout due to side effects” value in data set [7] (8-week treatment) was “No dropout was due to side effects”. The “values of routine CBC, biochemistry and EKG tests after treatment” value in data set [7] (baseline and end of week 8) is recorded as “all within the normal ranges without a significant change”. Moreover, in data set [7] (subjects from the treatment group), the “commonly seen side effects of anti-depression medication (nausea, nervousness, restlessness, irregular heart rate, sweating, constipation)” value is reported as “not observed”. In addition, the “inhibition of DAAO activity” value in data set [1] is “can inhibit DAAO activity”.
